Reference: ChEMBL document CHEMBL2163275, “The lipogenesis pathway as a cancer target” (J Med Chem, 2011)
pIC50, pKi: −log10 of the molar value.

Legend:
ATP-citrate synthase [1] = molecular target: T1, ATP-citrate synthase (Rattus norvegicus, UniProt P16638); experiment: Inhibition of rat liver ACLY by fluorimetric analysis
T1 sequence (P16638 whole entry): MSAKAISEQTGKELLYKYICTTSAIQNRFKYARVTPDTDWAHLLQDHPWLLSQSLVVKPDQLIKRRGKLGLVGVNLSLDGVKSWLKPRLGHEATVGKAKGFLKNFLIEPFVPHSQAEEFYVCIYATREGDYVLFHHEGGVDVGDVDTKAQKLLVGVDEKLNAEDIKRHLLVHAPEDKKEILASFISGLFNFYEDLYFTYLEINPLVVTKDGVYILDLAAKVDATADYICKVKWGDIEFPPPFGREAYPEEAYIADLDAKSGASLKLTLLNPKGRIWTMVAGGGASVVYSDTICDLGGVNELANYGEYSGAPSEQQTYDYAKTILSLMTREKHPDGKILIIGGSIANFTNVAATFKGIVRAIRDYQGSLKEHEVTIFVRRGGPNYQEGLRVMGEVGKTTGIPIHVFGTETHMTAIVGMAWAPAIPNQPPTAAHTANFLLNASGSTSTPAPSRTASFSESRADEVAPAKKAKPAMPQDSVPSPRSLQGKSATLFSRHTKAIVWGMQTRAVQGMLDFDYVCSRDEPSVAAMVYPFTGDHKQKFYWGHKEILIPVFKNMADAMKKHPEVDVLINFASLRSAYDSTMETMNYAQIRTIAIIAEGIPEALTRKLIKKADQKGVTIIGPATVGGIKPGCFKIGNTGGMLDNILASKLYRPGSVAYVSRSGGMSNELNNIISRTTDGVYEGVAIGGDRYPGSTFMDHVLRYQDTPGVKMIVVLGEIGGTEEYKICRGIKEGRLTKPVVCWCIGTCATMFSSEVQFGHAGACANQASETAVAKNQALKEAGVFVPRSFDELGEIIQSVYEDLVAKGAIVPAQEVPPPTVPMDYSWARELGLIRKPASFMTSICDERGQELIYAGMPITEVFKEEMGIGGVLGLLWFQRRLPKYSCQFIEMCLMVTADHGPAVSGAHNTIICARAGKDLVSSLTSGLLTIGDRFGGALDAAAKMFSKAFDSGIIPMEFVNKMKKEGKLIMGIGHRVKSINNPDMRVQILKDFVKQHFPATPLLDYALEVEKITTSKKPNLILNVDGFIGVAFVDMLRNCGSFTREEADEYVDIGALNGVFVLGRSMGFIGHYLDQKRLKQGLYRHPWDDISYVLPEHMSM

ATP-citrate synthase [2] = molecular target: T1, ATP-citrate synthase
[3] = Inhibition of rat liver ACC
[4] = Competitive inhibition of Escherichia coli ACC carboxyltransferase activity using malonyl coA as substrate
Escherichia coli = experiment: Ratio of biotin Ki to compound Ki for Escherichia coli ACC
[5] = Inhibition of rat liver ACC using acetyl coA as substrate and [14C]NaHCO3 incubated for 30 mins prior to substrate addition by liquid scintillation counting
Fatty acid synthase [6] = molecular target: T2, Fatty acid synthase (Homo sapiens, UniProt P49327); experiment: Inhibition of FASN in human HepG2 cells; type: cell-based
Target sequence in this assay (P49327 whole entry): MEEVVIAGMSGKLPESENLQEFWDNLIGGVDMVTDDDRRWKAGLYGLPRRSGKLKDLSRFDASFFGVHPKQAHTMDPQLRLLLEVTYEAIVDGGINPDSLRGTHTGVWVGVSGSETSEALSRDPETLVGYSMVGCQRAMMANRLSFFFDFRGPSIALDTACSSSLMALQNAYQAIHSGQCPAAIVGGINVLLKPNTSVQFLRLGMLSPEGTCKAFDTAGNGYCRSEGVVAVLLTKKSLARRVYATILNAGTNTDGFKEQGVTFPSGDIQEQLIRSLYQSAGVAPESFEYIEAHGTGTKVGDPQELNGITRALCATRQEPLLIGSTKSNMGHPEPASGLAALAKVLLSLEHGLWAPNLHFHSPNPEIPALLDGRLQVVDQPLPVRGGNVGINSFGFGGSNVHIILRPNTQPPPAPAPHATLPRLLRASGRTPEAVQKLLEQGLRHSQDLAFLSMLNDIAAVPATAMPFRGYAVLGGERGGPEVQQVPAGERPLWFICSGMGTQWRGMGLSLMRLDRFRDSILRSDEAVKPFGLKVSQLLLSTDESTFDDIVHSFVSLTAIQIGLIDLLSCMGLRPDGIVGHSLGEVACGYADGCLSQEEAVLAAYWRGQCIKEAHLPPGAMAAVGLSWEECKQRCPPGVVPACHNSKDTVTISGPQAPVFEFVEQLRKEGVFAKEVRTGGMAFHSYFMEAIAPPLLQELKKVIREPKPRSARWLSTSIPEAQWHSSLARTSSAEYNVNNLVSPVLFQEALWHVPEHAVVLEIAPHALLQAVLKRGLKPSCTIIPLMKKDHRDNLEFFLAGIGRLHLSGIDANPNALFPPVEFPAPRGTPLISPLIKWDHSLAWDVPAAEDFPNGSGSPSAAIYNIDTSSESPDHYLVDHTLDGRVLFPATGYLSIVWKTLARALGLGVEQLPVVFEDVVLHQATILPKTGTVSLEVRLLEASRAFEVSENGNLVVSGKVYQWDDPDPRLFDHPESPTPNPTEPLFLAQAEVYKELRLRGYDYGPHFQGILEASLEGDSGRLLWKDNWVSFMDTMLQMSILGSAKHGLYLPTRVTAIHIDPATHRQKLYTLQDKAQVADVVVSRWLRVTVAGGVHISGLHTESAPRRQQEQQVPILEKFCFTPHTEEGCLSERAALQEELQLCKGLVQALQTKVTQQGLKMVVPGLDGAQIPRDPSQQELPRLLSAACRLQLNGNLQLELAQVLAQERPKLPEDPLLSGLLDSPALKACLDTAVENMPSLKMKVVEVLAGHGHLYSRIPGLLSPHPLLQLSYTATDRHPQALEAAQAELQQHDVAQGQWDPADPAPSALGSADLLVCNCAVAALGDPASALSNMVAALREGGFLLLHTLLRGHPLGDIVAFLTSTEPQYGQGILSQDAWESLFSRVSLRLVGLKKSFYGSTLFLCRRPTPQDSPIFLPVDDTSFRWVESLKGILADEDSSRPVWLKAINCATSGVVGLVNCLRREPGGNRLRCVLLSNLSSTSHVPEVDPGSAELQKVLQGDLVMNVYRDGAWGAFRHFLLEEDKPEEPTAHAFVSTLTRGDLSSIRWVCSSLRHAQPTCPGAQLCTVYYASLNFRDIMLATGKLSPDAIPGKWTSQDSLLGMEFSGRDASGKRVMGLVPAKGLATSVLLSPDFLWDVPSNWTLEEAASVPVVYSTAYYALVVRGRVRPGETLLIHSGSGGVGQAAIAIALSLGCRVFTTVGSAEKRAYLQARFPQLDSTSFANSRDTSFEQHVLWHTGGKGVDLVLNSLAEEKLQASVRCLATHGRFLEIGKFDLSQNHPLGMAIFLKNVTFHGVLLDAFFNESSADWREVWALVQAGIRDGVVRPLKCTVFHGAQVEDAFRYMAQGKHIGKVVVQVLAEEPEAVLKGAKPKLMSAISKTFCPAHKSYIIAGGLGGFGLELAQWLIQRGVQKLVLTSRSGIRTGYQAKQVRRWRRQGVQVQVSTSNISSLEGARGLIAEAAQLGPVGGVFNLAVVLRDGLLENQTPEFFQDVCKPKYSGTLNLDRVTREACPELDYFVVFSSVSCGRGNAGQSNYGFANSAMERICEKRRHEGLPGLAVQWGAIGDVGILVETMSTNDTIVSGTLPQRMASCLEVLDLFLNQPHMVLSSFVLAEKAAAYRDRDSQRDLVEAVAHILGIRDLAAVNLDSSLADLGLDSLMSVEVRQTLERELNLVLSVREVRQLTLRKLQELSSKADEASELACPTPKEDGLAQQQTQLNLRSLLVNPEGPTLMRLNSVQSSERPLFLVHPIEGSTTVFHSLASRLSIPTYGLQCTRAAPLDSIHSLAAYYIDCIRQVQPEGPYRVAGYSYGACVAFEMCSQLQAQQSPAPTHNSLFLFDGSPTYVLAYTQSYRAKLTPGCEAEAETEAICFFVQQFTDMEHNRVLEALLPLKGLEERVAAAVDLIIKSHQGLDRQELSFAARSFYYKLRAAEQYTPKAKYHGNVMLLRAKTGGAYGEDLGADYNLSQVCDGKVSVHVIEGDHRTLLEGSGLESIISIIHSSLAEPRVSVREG

Fatty acid synthase [7] = molecular target: T2, Fatty acid synthase; details: SK-BR-3, 22.4 uM
Target sequence in this assay (P49327 whole entry, looked up): as the sequence (P49327 whole entry) above
Description: Inhibition of FASN in human SKBR3 cells at 22.4 uM

Fatty acid synthase [8] = molecular target: T2, Fatty acid synthase; details: SK-BR-3, 179 uM
Target sequence in this assay (P49327 whole entry, looked up): as the sequence (P49327 whole entry) above
Description: Inhibition of FASN in human SKBR3 cells at 179 uM

Fatty acid synthase [9] = molecular target: T2, Fatty acid synthase; experiment: Inhibition of FASN in human SKBR3 cells at 21 uM after 3 mins by spectrophotometric analysis relative to control; type: cell-based; details: SK-BR-3
Target sequence in this assay (P49327 whole entry, looked up): as the sequence (P49327 whole entry) above

Fatty acid synthase [10] = molecular target: T2, Fatty acid synthase; experiment: Inhibition of FASN in human SKBR3 cells at 29 uM after 3 mins by spectrophotometric analysis relative to control; type: cell-based; details: SK-BR-3
Target sequence in this assay (P49327 whole entry, looked up): as the sequence (P49327 whole entry) above

ATP-citrate synthase [11] = molecular target: T3, ATP-citrate synthase (Homo sapiens, UniProt P53396); experiment: Inhibition of human recombinant ACLY
T3 sequence (P53396 whole entry): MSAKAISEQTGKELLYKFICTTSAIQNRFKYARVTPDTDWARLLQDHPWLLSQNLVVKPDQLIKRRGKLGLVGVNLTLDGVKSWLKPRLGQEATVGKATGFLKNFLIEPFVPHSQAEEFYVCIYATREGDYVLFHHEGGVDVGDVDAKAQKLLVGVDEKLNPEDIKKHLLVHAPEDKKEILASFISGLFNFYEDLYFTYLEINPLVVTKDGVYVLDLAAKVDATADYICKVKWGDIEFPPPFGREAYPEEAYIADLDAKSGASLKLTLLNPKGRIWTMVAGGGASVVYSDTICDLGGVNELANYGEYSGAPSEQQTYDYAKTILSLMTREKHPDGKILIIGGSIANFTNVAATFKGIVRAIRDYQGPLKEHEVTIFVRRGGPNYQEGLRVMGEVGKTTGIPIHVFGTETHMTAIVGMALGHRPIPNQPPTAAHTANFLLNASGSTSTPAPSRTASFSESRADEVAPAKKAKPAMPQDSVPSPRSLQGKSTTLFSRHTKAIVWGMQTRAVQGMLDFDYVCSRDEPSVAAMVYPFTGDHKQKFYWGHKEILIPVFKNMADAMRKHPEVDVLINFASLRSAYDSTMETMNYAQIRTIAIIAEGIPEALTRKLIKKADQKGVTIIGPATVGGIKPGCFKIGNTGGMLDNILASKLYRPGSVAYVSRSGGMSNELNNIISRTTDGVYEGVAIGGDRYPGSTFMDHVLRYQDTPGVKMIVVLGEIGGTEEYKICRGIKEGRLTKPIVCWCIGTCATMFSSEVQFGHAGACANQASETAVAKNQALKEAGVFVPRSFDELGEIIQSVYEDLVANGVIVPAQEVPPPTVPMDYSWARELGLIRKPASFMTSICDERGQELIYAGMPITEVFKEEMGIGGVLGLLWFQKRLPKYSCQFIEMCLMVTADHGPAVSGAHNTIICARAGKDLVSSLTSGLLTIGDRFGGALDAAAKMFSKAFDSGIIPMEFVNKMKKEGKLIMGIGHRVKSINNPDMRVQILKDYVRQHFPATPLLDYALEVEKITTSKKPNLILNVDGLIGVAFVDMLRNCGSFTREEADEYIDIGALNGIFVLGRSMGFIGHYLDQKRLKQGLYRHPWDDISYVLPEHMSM

Fatty acid synthase [12] = molecular target: T2, Fatty acid synthase; experiment: Inhibition of human recombinant FASN thioesterase domain
Target sequence in this assay (P49327 whole entry): as the sequence (P49327 whole entry) above

Fatty acid synthase [13] = molecular target: T2, Fatty acid synthase; experiment: Inhibition of FASN in human A375 cells; type: cell-based, A-375
Target sequence in this assay (P49327 whole entry): as the sequence (P49327 whole entry) above

Fatty acid synthase [14] = molecular target: T4, Fatty acid synthase (Gallus gallus, UniProt P12276); experiment: Inhibition of chicken liver FASN ketoreductase activity
[15] = Inhibition of duck liver FASN; parameters: species or system Anas platyrhynchos
[16] = Inhibition of duck liver FASN ketoreductase activity; parameters: species or system Anas platyrhynchos
Fatty acid synthase [17] = molecular target: T4, Fatty acid synthase; experiment: Inhibition of chicken liver FASN
HepG2 = experiment: Cytotoxicity against human HepG2 cells by MTT assay; type: functional, cell-based

Molecule: O=C(O)C[C@@](O)(C(=O)O)[C@H](O)C(=O)O
- pKi (ATP-citrate synthase [1]): 5.10

Molecule: O=C(O)C[C@@]1(C(=O)O)O[C@H]1C(=O)O
- pKi (ATP-citrate synthase [2]): 4.74

Molecule: O=C1C[C@@](O)(C(=O)O)[C@@H](C(=O)O)O1
- pKi (ATP-citrate synthase [1]): 4.30

Molecule: Cc1cc(O)c2c(c1)Cc1cc(O)c(Cl)c(O)c1C2=O
- pIC50 (ATP-citrate synthase [2]): 6.55

Molecule: CC(C)(C)c1ccc(N2C[C@@H](COc3ccc(C(=O)SCCNC(=O)CCNC(=O)[C@H](O)C(C)(C)COP(=O)(O)OP(=O)(O)OC[C@H]4O[C@@H](n5cnc6c(N)ncnc65)[C@H](O)[C@@H]4OP(=O)(O)O)cc3)CC2=O)cc1
- pKi [3]: 4.16

Molecule: CC(C)(COP(=O)(O)OP(=O)(O)OC[C@H]1O[C@@H](n2cnc3c(N)ncnc32)[C@H](O)[C@@H]1OP(=O)(O)O)[C@H](O)C(=O)NCCC(=O)NCCSC(=O)CC(=O)N1C(=O)N[C@@H]2[C@H](CCCCC(=O)OCc3ccccc3)SC[C@@H]21
- pKi [4]: 4.64
- Ratio Ki (Escherichia coli): 350

Molecule: Cc1c(-c2cc3ccccc3o2)oc(=O)c(C)c1O
- pKi [3]: 5.48

Molecule: CC(C)(CCCCCC(O)CCCCCC(C)(C)C(=O)SCCNC(=O)CCNC(=O)[C@H](O)C(C)(C)COP(=O)(O)OP(=O)(O)OC[C@H]1O[C@@H](n2cnc3c(N)ncnc32)[C@H](O)[C@@H]1OP(=O)(O)O)C(=O)O (stereo not given in full)
- pIC50 [5]: 4.54

Molecule: C=C/C(C)=C/[C@]1(C)SC(=O)C(C)=C1O
- pIC50 (Fatty acid synthase [6]): 3.68

Molecule: C=C/C(C)=C/[C@]1(C)SC(=O)C=C1O
- pIC50 (Fatty acid synthase [6]): 4.01

Molecule: CCCCC/C=C\C/C=C\C/C=C\CCCCC(=O)O
- inhibition (Fatty acid synthase [7]): 41%
- inhibition (Fatty acid synthase [8]): 78%

Molecule: O=C(Oc1cc(OC(=O)c2cc(O)c(O)c(O)c2)c2ccccc2c1)c1cc(O)c(O)c(O)c1
- inhibition (Fatty acid synthase [9]): 90%

Molecule: O=C(Oc1ccc(OC(=O)c2cc(O)c(O)c(O)c2)c2ccccc12)c1cc(O)c(O)c(O)c1
- inhibition (Fatty acid synthase [10]): 69%

Molecule: O=C(O)C[C@](O)(C[C@@H](O)CCCCCC1c2ccccc2-c2cc(Cl)ccc21)C(=O)O (mixture of isomers)
- pKi (ATP-citrate synthase [11]): 6.66

Molecule: O=C(O)[C@H](O)[C@](O)(C[C@@H](O)CCCCCCc1ccc(Cl)cc1Cl)C(=O)O (racemic)
- pKi (ATP-citrate synthase [11]): 6.21

Molecule: Cc1cn(-c2cc(Cl)ccc2CCCCCC[C@H](O)C[C@@](O)(CC(=O)O)C(=O)O)cc1C (racemic)
- pKi (ATP-citrate synthase [11]): 6.52

Molecule: O=C(O)C[C@](O)(C[C@@H](O)CCCCCn1c(-c2ccccc2)cc2cc(Cl)ccc21)C(=O)O (racemic)
- pKi (ATP-citrate synthase [11]): 6.43

Molecule: O=C(O)C[C@](O)(C[C@@H](O)CCCCCn1c2ccccc2c2cc(Cl)ccc21)C(=O)O (racemic)
- pKi (ATP-citrate synthase [11]): 6.15

Molecule: C=C1C(=O)O[C@H](CCCCCCCC)[C@H]1C(=O)O (relative stereo)
- pIC50 (Fatty acid synthase [12]): 4.23
- pIC50 (Fatty acid synthase [13]): 4.49
- pIC50 (Fatty acid synthase [14]): 4.10

Molecule: Cc1cn(-c2cc(Cl)ccc2CCCCCC[C@H](O)C[C@@](O)(CC(=O)O)C(=O)O)cc1C (stereo in doubt; 134)
- pKi (ATP-citrate synthase [11]): 6.24

Molecule: Cc1cn(-c2cc(Cl)ccc2CCCCCC[C@H](O)C[C@@](O)(CC(=O)O)C(=O)O)cc1C (stereo in doubt; 135)
- pKi (ATP-citrate synthase [11]): 6.47

Molecule: O=C(O[C@@H]1Cc2c(O)cc(O)cc2O[C@H]1c1ccc(O)c(O)c1)c1cc(O)c(O)c(O)c1 [(-)-CATECHINGALLATE]
- pIC50 [15]: 5.47
- pIC50 [16]: 4.52

Molecule: O=c1c(O[C@@H]2O[C@@H](CO)[C@H](O)[C@H]2O)c(-c2ccc(O)c(O)c2)oc2cc(O)cc(O)c12 [AVICULARIN]
- pIC50 (Fatty acid synthase [17]): 5.21

Molecule: C/C=C/C/C=C/CCC(=O)[C@H]1O[C@H]1C(N)=O [CERULENIN]
- pIC50 (Fatty acid synthase [13]): 4.66

Molecule: O=C(O[C@@H]1Cc2c(O)cc(O)cc2O[C@@H]1c1cc(O)c(O)c(O)c1)c1cc(O)c(O)c(O)c1 [EPIGALOCATECHIN GALLATE]
- pIC50 (Fatty acid synthase [17]): 4.28
- pIC50 (Fatty acid synthase [14]): 4.00

Molecule: O=c1c(O)c(-c2ccc(O)c(O)c2)oc2cc(O)ccc12 [FISETIN]
- pIC50 (HepG2): < 3.40
- pIC50 [15]: 4.73

Molecule: O=C(/C=C/c1ccc(O)cc1)c1ccc(O)cc1O [ISOLIQUIRITIGENIN]
- pIC50 [15]: 5.06
- pIC50 [16]: 3.85

Molecule: O=c1c(O)c(-c2ccc(O)cc2)oc2cc(O)cc(O)c12 [KAEMPFEROL]
- pIC50 (HepG2): < 3.40
- pIC50 [15]: 4.98

Molecule: O=c1cc(-c2ccc(O)c(O)c2)oc2cc(O)cc(O)c12 [LUTEOLIN]
- pIC50 (HepG2): 4.15
- pIC50 [15]: 5.60

Molecule: O=c1c(O)c(-c2ccc(O)cc2O)oc2cc(O)cc(O)c12 [MORIN]
- pIC50 [15]: 5.64
- pIC50 [16]: 4.59

Molecule: CC(Cc1ccc(O)c(O)c1)C(C)Cc1ccc(O)c(O)c1 (stereo not given) [NORDIHYDROGUAIARETIC ACID]
- pIC50 [15]: 5.03
- pIC50 [16]: 3.37

Molecule: O=C1C(c2ccc(O)c(O)c2)=c2c(c3c(n2CCc2ccc(O)cc2)=C(c2ccc(O)c(O)c2)C(=O)c2cc(O)c(O)cc2-3)-c2cc(O)c(O)cc21 [PURPURONE]
- pIC50 (ATP-citrate synthase [2]): 5.15

Molecule: O=c1c(O)c(-c2ccc(O)c(O)c2)oc2cc(O)cc(O)c12 [QUERCETIN]
- pIC50 (HepG2): 4.51
- pIC50 [15]: 5.37

Molecule: Oc1ccc(/C=C/c2cc(O)cc(O)c2)cc1 [RESVERATROL]
- pIC50 [15]: 5.07
- pIC50 [16]: 3.92

Molecule: C[C@H]1[C@H](C)CC[C@]2(C(=O)O)CC[C@]3(C)C(=CC[C@@H]4[C@@]5(C)CC[C@H](O)C(C)(C)[C@@H]5CC[C@]43C)[C@H]12 [URSOLIC ACID]
- pIC50 (Fatty acid synthase [17]): 4.88
- pIC50 (Fatty acid synthase [14]): 4.23

Molecule: H-EITPEKNPQLR-OH
- pIC50 (Fatty acid synthase [12]): 5.00
- pIC50 (Fatty acid synthase [14]): 4.57

Molecule: H-KNPQLR-OH
- pIC50 (Fatty acid synthase [14]): 4.10

Molecule: H-RKQEEDEDEEQQRE-OH
- pIC50 (Fatty acid synthase [12]): 4.96
- pIC50 (Fatty acid synthase [14]): 4.80
